Measured values as given in article PMC5132298 (PLoS ONE, 2016).
Read-outs that look alike come from different tables or passages of the source.

Key:
[1] = system: Alternaria sonali, Fulvia fulva, Botrytis cinerea and Rhizoctonia solani; set-up: method as in PMID 23451708; settings: 4 fungal pathogens; cited from earlier work
[2] = target: T1, ScErg11p6×His (S. cerevisiae lanosterol 14α-demethylase) (Saccharomyces cerevisiae, UniProt P10614); test: Type II binding (difference spectra) to affinity purified ScErg11p6×His; settings: for Induced spectral shift on ligand binding Wavelength: Soret peak, (-) indicates no significant change in Soret peak wavelength
T1 construct: Crystal structures of the full length S. cerevisiae lanosterol 14α-demethylase (ScErg11p6×His); 6×His (hexahistidine); made in house; host or cells: Saccharomyces cerevisiae (AD3Δ overexpression strain, native ERG11 deleted)
Description: Type II azole binding is characterised by a shift of the Soret peak from 417 nm to 421–424 nm in ScErg11p6×His and other cytochrome P450s. The type II difference spectra were used to detect and quantitate binding of the inhibitors S-TBZ, R-TBZ, S-PTZ, R-PTZ, S-DPZ, R-DPZ, S-oxo-PTZ and R-oxo-PTZ, FQZ, and PRZ using Ni-NTA affinity purified wild type ScErg11p6×His preparations at 1 μM. Spectral shifts, [Azole]0.5 values, Hill coefficients as well as Type II difference spectra binding curves are shown in S3 Table (selected spectra shown in S2 Fig) and Fig 6, respectively.
Samples of Ni-NTA-agarose affinity purified ScErg11p6×His were eluted with 40 mM histidine instead of imidazole as described by Warrilow et al.. Samples were washed free of the histidine and concentrated by centrifugal filtration using a 50 kDa molecular-weight cut-off Amicon Ultra-4 centrifugal filter (Millipore) to give protein with a Soret peak at 417 nm. Carbon monoxide binding was used to determine the concentration of functional cytochrome P450 for drug binding studies as described previously based on the protocol described by Guengerich et al. Saturation curves for the binding of type II ligands were determined by obtaining difference spectra for functional enzyme at 1 μM as described previously. […] All calculations were carried out using GraphPad Prism 6 Software (GraphPad Prism, San Diego, CA). [Azole]0.5 values were defined as the concentration of the azole drug that gave half ΔAmax.
Hill coefficients and Kd values were obtained by applying the Hill equation as described in Materials and methods. (-) indicates no significant change in Soret peak wavelength on exposure to the ligand. The data presented is a representative set

Candida albicans CYP51 = system: Candida albicans CYP51; set-up: method as in PMID 23275516; settings: cited from earlier work

T1 sequence (P10614 whole entry): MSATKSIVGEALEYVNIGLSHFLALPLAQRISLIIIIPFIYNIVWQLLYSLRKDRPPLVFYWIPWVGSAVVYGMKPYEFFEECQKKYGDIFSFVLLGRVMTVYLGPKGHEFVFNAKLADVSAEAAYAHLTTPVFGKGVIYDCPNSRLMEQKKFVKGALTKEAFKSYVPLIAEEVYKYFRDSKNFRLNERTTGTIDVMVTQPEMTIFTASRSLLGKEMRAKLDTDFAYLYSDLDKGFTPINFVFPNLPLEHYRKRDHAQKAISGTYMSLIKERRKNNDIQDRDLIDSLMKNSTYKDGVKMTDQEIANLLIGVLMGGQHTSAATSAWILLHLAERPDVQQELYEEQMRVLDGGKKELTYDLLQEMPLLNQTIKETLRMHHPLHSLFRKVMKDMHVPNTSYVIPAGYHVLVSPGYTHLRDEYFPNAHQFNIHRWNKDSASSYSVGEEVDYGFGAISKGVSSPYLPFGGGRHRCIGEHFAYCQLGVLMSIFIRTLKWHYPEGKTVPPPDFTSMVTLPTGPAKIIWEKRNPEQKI

SMILES | stereoselective bioactivity among DFC stereoisomers [1] | mode of inhibition ([2]; ScErg11p6×His) | Induced spectral shift on ligand binding Wavelength [2] | Kd (Candida albicans CYP51; read-out: Kd (tight type II binding), Candida albicans CYP51, type II binding) [µM] | type of binding (difference spectra) ([2]; azole up to 2 μM, 1 μM ScErg11p6×His) | Kd (Candida albicans CYP51; Candida albicans CYP51, type I difference spectra, read-out: Kd (weak type I difference spectra)) [µM]
C[C@@H]1CO[C@@](Cn2cncn2)(c2ccc(Oc3ccc(Cl)cc3)cc2Cl)O1 [2S,4R stereoisomer, 1-(((2S,4R)-2-(2-chloro-4-(4-chlorophenoxy)phenyl)-4-methyl-1,3-dioxolan-2-yl)methyl)-1H-1,2,4-triazole] | most active compound |  |  |  |  | 
OC(Cc1ccccc1Cl)(Cn1cncn1)C1(Cl)CC1 (stereo not shown) [DPZ, prothioconazole-desthio] |  | non-competitive inhibitors | 417 nm to ~421 | 0.0364 ± 0.0107 |  | 
OC(Cc1ccccc1Cl)(Cn1nc[nH]c1=S)C1(Cl)CC1 (stereo not shown) [PTZ, prothioconazole] |  |  | absence of a spectral shift |  | no binding | 6.3 ± 1.5
